Experimental data: patent US20130197073A1, “HYPOCHOLESTEROLEMIC, ANTI-INFLAMMATORY AND ANTIEPILEPTIC NEUROPROTECTIVE COMPOUND” (NEURON BIOPHARMA, S.A., priority 2010, published 2013)
Where two headings read alike, the source gives them in different places.

Columns and labels:
TNFα = assay: LPS model of systemic shock in mice, plasma TNFα at 2 and 4 hours; assay type: in vivo; details: two i.p. doses of 50 mg/kg; 2 and 4 hours post-LPS
Description: To that end an additional assay was carried out in which all the animals included were 12-week old male C57BL6 mice. The experiments were carried out strictly complying with the standard entitled Guidance on the Operation of Animals (Scientific Procedures, Act. 1986). The animals were subjected to their respective quarantine period and were treated with maximum precaution to minimize possible contaminations during treatments and handling.
The mice were split up into three experimental groups: control group (n=8); control+LPS group (n=16); NST0060+LPS group (n=16). The mice were i.p. administered two doses of 50 mg/kg of NST0060 (in its lactone form) spaced out 12 hours from one another. 0.5% methyl cellulose in physiological saline, which was administered to the mice in the control groups with the same administration regimen, was used as a vehicle. Peripheral systemic inflammation was induced one hour after the last treatment by means of a single i.p. injection of LPS at 8 mg/kg. Half the mice in which systemic shock was induced (8 animals from the control+LPS group and 8 animals from the NST0060+LPS group) were sacrificed 2 hours after the inoculation of the LPS. Blood was taken and plasma was obtained, and both were frozen. […] The concentration of the inflammatory cytokines TNFα and IL-1β was evaluated in the plasma obtained by means of ELISA.

[1] = system: promoter of a gene that could be modulated by oxidative stress bound to the firefly luciferase reporter gene; assay: Oxidative stress of the brain induced by kainate in luciferase reporter mice, in vivo bioluminescence; details: 50 mg/kg i.p. at 24 and 0.5 hours before KA 25 mg/kg and daily; 1 to 4 dpi
Description: All the animals included during the experimental process were 12-week old males from the FVB/N strain who were carriers of a gene construct with the promoter of a gene that could be modulated by oxidative stress bound to the firefly luciferase reporter gene. The experiments were carried out strictly complying with the standard entitled Guidance on the Operation of Animals (Scientific Procedures, Act. 1986). The animals were subjected to their respective quarantine period and were treated with maximum precaution to minimize possible contaminations during inoculations and handling.
The animals were intraperitoneally inoculated with 25 mg/kg of kainate (KA) dissolved in PBS. Seven mice were pretreated at 24 and 0.5 hours before inoculation with KA and subsequently on a daily basis up to 7 days post-inoculation by means of intraperitoneal injection with 0.25% methyl cellulose in PBS as a vehicle (vehicle+KA administration regimen), and another 7 mice were pretreated at 24 and 0.5 hours before inoculation with KA and subsequently on a daily basis up to 7 days post-inoculation by means of intraperitoneal injection with compound NST0060 at a dose of 50 mg/kg (NST0060+KA administration regimen). […] Oxidative stress in the brain was monitored by means of the in vivo bioluminescence technique with the IVIS Lumina system (Caliper LS). […]

[2] = PAMPA, 18 h, 100 μM, pH 7.4
Description: To that end, the BBB was mimicked in an in vitro system that allowed evaluating the compound without using cells, and where the so-called PAMPA (Parallel Artificial Membrane Permeation Assay) was used, using a sandwich system considering the crossing of compounds by means of passive diffusion.
A mixture of marketed lipids derived from pig brain with a phospholipid composition very similar to that which forms the barrier and known as PBL (Porcine Polar Brain Lipid) was used to mimic the blood-brain barrier. This compound was stored at −20° C. dissolved in dodecane at 100 μg/ml in glass vials.
To that end, a 1/100 dilution of the compounds was performed, being the DMSO content in all cases 1%.
Five microliters of PBL at 20 μg/ml prepared from the frozen stock at 100 μg/mL were added in a 96-well filter plate, with a PVDF membrane and a pore size of 45 μm (MAIPN4550, Millipore). After 2 minutes, 300 μl of the phosphate buffer used to dilute the compounds were added. […] After that time, 100 μl from the wells of the donor plates and acceptor plates were transferred to a special 96-well plate for UV reading. […] The percentage of barrier crossing as well as the effective permeability (Pe) were calculated from the spectrophotometric data. […]
[Drug]acceptor=Absorbance of the acceptor well
[Drug]equilibrium=Absorbance of the mean of the basal wells/2 […]

[3] = system: zebrafish (Danio rerio, AB strain) embryos; details: in vivo
Description: The study of this parameter (cardiotoxicity) not only determines the heart rate of the animals but also it allows determining heart beat alterations (tachycardia, bradycardia, etc.) or heart development anomalies (pericarditis, atrophy, hypertrophy, etc.).
The determination of the heart rate of the zebrafish embryos or larvae is performed visually. The heart beat (with the help of a manual counter) is counted for a period of 15 seconds by means of a magnifying glass (magnifications of 4-40×). The heartbeat of 12 of the 30 animals used per treatment in total is counted. The number of beats obtained is multiplied by 4 to obtain the number of heart beats per minute of the animal.

FVB/NHan mice = assay: Kainate (KA) model of epilepsy in mice, convulsions, status epilepticus, latency, Racine scale; assay type: in vivo
Description: All the animals included during the experimental process were 12-week old males from the FVB/NHan strain. The experiments were carried out strictly complying with the standard entitled Guidance on the Operation of Animals (Scientific Procedures, Act. 1986). The animals were subjected to their respective quarantine period and were treated with maximum precaution to minimize possible contaminations during inoculations and handling.
The animals were intraperitoneally inoculated with 25 mg/kg of kainate (KA) dissolved in PBS. Fourteen animals were pretreated at 24 and 0.5 hours before inoculation with KA by means of intraperitoneal injection with 0.25% methyl cellulose in PBS (vehicle+KA administration regimen), and 14 were pretreated at 24 and 0.5 hours before inoculation with KA by means of intraperitoneal injection with compound NST0060 at a dose of 50 mg/kg (NST0060+KA administration regimen). After inoculation, the animals were individually housed in trays to monitor them. The maximum level of epilepsy of the animals was recorded during the observation according to the Racine scale every ten minutes and for at least 120 minutes post-inoculation (m.p.i.).

seladin-1/DHCR24 gene = assay: Induction of seladin-1/DHCR24 gene expression, quantitative RT-PCR; assay type: cell-based, human; details: 4 μM, 24 hours, GAPDH-normalized; increase at all tested concentrations (1, 4, 10, 40 μM)
Description: The assay was performed on human neuroblastoma SK-N-MC cells in culture from the American Type Culture Collection (ATCC), in all cases strict rules of sterility were followed and the manipulation was performed in class II biological safety cabinets following European standard EN 12469. The cells were maintained in the following culture medium: Minimum Essential Medium Eagle (MEM) supplemented with 1 mM sodium pyruvate, 2 mM L-glutamine, 0.1 mM non-essential amino acids, 0.05 mg/ml gentamicin and 10% fetal bovine serum.
Real-time quantitative RT-PCR was used to analyze the expression of the seladin-1/DHCR24 gene. The SK-N-MC cells were treated for 24 hours in the absence (control) or presence of NST0060 at 1, 4, 10 or 40 μM. The total RNA was extracted by means of the High Pure RNA Isolation kit (Roche) and the RNA amount and quality were analyzed by means of spectrophotometry in the Infinite 200 NanoQuant system (Tecan). The RT-PCR was performed by means of two steps, first, the mRNA was transformed to cDNA using the RNA to cDNA kit (Applied Biosystem) and the gene expression was subsequently analyzed by means of TaqMan probes using the validated probes Hs00207388_m1 for seladin-1/DHCR24 and Hs99999905_m1 for GAPDH (used to normalize the results), both of which are human-specific, in the 7500 Fast Real-Time PCR System equipment (Applied Biosystem). […]

## CCCC(CCC)C(=O)O[C@H]1C[C@@H](C)C=C2C=C[C@H](C)[C@H](CC[C@@H]3C[C@@H](O)CC(=O)O3)[C@H]21 [NST0060, 2-propylpentanoic acid (1S,3R,7S,8S,8aR)-1,2,3,7,8,8a-hexahydro-3,7-dimethyl-8-[2-[(2R,4R)-tetrahydro-4-hydroxy-6-oxo-2H-pyran-2-yl]ethyl]-1-naphthalenyl ester]
TNFα
  plasma concentration of TNFα (inflammatory response): decrease in the inflammatory response at both 2 and 4 hours post-LPS
[1]
  expression of gene associated with oxidative stress in the brain (photon emission): did not show a significant increase in the expression of this gene associated with oxidative stress
[2]
  % BBB crossing: 29.8 ± 2.4%
[3]; AB, zebrafish (Danio rerio), 3 mg/kg, 72 h
  heart rate with respect to the controls: not at the dose of 3 mg/Kg
[3]; 10 mg/kg
  heart rate with respect to the controls: decrease of the heart rate is detected
FVB/NHan mice; 50 mg/kg i.p. at 24 and 0.5 hours before KA 25 mg/kg i.p., vehicle+KA 79%
  Status epilepticus, percentage of animals with tonic-clonic seizures lasting at least 30 minutes: 29%
FVB/NHan mice; 50 mg/kg i.p. at 24 and 0.5 hours before KA 25 mg/kg i.p., vehicle+KA 93%
  Convulsions, percentage of animals with tonic-clonic seizures: 36%
FVB/NHan mice; 50 mg/kg i.p. at 24 and 0.5 hours before KA 25 mg/kg, mean±SEM, vehicle+KA 45.7±7.5
  latency (time when the first convulsions occurred): 100.1 ± 7.3 min
FVB/NHan mice; 50 mg/kg i.p., two hours after KA, vehicle+KA above 4
  mean level of epilepsy on the Racine scale: ≤ 3
seladin-1/DHCR24 gene
  increase of seladin-1/DHCR24 gene expression with respect to the control: 2.5 fold
